{
  "source": "patent US10251874B2",
  "about": "“Crystalline forms of a JAK inhibitor compound” (THERAVANCE BIOPHARMA R&D IP, LLC, priority 2017, dated 2019)",
  "type_in_all_cases": "cell-based",
  "key": {"[1]": {"tested_on": "IL-6 stimulated pSTAT3 in CD3+ T cells", "assay": "Assay 6: Inhibition of IL-6 stimulated pSTAT3 in CD3+ T cells", "conditions": "T-cell; CD3+ T cells in human PBMCs, flow cytometry; read-out: pIC50, inhibition of IL-6 stimulated pSTAT3 (converted)", "source_text": "A protocol analogous to that of Assay 5 was used to determine the potency of the test compound for inhibition of interleuken-6 (IL-6) stimulated STAT3 phosphorylation.\nAn Alexa Fluor 647 conjugated anti-pSTAT3 antibody (pY705, Clone 4/P, BD Biosciences) was used to detect STAT3 phosphorylation."}, "[2]": {"tested_on": "IFNγ induced CXCL9 secretion in EpiAirway tissue cultures", "assay": "Assay 15: IFNγ induced CXCL9 in human 3D airway cultures", "conditions": "192 h, Day 8, average from 3 or 4 donors, read-out: % inhibition of IFNγ induced CXCL9 secretion (±STDV)", "procedure": "EpiAirway tissue cultures were obtained from Mattek (AIR-100). Cultures were derived from asthmatic donors. In a cell culture insert, human derived tracheal/bronchial epithelial cells were grown and differentiated on a porous membrane support, allowing an air-liquid interface with warmed culture medium below the cells and a gaseous test atmosphere above. Tissues were cultured in maintenance media (Mattek, AIR-100-MM) in a 37° C., 5% CO2 humidified incubator. Four donors were tested. On Day 0, tissue cultures were treated with test compounds at 10 μM, 1 μM and/or 0.1 μM. Compounds were diluted in dimethyl sulfoxide (DMSO, Sigma) to a final concentration of 0.1%. DMSO at 0.1% was used as a vehicle control. Test compounds were incubated with cultures for 1 hour at 37° C., 5% CO2, followed by the addition of pre-warmed media containing IFNγ (R&D Systems) or IL-27 (R&D Systems) at a final concentration at 100 ng/ml. Tissue cultures were maintained for 8 days. Media was replaced every 2 days with fresh media containing compounds and IFNγ or IL-27. On Day 8, tissue cultures and supernatants were collected for analysis. Supernatant samples were assayed for CXCL10 (IP-10) and CXCL9 (MIG) using luminex analysis (EMD Millipore). Data is expressed as % Inhibition +/−standard deviation (±STDV). Percent inhibition was determined by compound inhibitory potency against IFNγ or IL-27 induced CXCL10 or CXCL9 secretion compared to vehicle treated cells. Data is the average from 3 or 4 donors. Compound 1 was able to inhibit IFNγ induced CXCL10 secretion by 99%±2.0 (at 10 μM), 71%±19 (at […]) and 17%±12 (at 0.1 μM) when compared to vehicle control. Compound 1 was able to inhibit IFNγ induced CXCL9 secretion by 100%±0.3 (at 10 μM), 99%±0.9 (at 1 μM) and 74%±17 (at 0.1 μM) when compared to vehicle. […] Compound 1 was able to inhibit IL-27 induced CXCL9 secretion by 100%±0 (at 10 μM), 95%±3.7 (at 1 μM) and 75%±3.5 (at 0.1 μM) when compared to vehicle control."}, "[3]": {"tested_on": "IL-5 mediated survival of human eosinophils", "assay": "Assay 16: IL-5 mediated eosinophil survival assay", "conditions": "72 h, read-out: pIC50, IL-5 mediated eosinophil survival (cell viability) (converted)", "procedure": "The potency of the test compound for IL-5 mediated eosinophil survival was measured in human eosinophils isolated from human whole blood (AllCells). Because IL-5 signals through JAK, this assay provides a measure of JAK cellular potency. Human eosinophils were isolated from fresh human whole blood (AllCells) of healthy donors. Blood was mixed with 4.5% Dextran (Sigma-Aldrich) in a 0.9% sodium chloride solution (Sigma-Aldrich). Red blood cells were left to sediment for 35 minutes. The leukocyte rich upper layer was removed and layered over Ficoll-Paque (GE Healthcare) and centrifuged at 600 g for 30 minutes. The plasma and mononuclear cell layers were removed before the granulocyte layer was lysed with water to remove any contaminating red blood cells. […] Purity was analyzed using a LSRII flow cytometer (BD Biosciences). […]\nAfter cytokine stimulation, cells were centrifuged at 300 g for 5 min and washed twice with cold DPBS (Life Technologies). To access viability and apoptosis, cells were incubated with Propidium Iodide (Thermo Fisher Scientific) and APC Annexin V (BD Biosciences) and analyzed using a LSRII flow cytometer (BD Biosciences). IC50 values were determined from analysis of the viability curves of percent cell viability vs compound concentration. Data are expressed as pIC50 (negative decadic logarithm IC50) values."}},
  "note": "Read-outs that look alike come from different tables or passages of the source.",
  "data": [
    {"smiles": "CCc1cc(O)c(F)cc1-c1ccc2c(-c3nc4c([nH]3)CCN(C3CCN(C)CC3)C4)n[nH]c2c1", "note": "[Compound 1, 5-ethyl-2-fluoro-4-(3-(5-(1-methylpiperidin-4-yl)-4,5,6,7-tetrahydro-1H-imidazo[4,5-c]pyridin-2-yl)-1H-indazol-6-yl)phenol]", "values": [
      {"measurement": "IC50", "setting": "[1]", "result": 39.8, "unit": "nM"},
      {"measurement": "inhibition at 0.1 µM", "setting": "[2]; at 0.1 μM", "result": 74, "unit": "%"},
      {"measurement": "inhibition at 1 µM", "setting": "[2]; at 1 μM", "result": 99, "unit": "%"},
      {"measurement": "inhibition at 10 µM", "setting": "[2]; at 10 μM", "result": 100, "unit": "%"},
      {"measurement": "IC50", "setting": "[3]; in the presence of 10 pg/ml IL-5, 72 hours", "result": 12.6, "unit": "nM"},
      {"measurement": "IC50", "setting": "[3]; in the presence of 1 ng/ml IL-5, 72 hours", "result": 316, "unit": "nM"}
    ]}
  ]
}
